Data: patent publication US6908935B2, “Calcium receptor modulating agents” (Amgen Inc., priority 2002, dated 2005)

The compounds below were run against T1, human parathyroid cell Ca^2+ receptor (hPCaR) (Homo sapiens, UniProt P41180) (assay: [Ca2+]i measurement with fluo-3 in HEK 293 4.0-7 cells stably transfected with hPCaR). Conditions: fluo-3 fluorescence (485/530 nm), effect on [Ca^2+]i.
T1 construct: expressed in transfected cells
T1 sequence (P41180 20-1078): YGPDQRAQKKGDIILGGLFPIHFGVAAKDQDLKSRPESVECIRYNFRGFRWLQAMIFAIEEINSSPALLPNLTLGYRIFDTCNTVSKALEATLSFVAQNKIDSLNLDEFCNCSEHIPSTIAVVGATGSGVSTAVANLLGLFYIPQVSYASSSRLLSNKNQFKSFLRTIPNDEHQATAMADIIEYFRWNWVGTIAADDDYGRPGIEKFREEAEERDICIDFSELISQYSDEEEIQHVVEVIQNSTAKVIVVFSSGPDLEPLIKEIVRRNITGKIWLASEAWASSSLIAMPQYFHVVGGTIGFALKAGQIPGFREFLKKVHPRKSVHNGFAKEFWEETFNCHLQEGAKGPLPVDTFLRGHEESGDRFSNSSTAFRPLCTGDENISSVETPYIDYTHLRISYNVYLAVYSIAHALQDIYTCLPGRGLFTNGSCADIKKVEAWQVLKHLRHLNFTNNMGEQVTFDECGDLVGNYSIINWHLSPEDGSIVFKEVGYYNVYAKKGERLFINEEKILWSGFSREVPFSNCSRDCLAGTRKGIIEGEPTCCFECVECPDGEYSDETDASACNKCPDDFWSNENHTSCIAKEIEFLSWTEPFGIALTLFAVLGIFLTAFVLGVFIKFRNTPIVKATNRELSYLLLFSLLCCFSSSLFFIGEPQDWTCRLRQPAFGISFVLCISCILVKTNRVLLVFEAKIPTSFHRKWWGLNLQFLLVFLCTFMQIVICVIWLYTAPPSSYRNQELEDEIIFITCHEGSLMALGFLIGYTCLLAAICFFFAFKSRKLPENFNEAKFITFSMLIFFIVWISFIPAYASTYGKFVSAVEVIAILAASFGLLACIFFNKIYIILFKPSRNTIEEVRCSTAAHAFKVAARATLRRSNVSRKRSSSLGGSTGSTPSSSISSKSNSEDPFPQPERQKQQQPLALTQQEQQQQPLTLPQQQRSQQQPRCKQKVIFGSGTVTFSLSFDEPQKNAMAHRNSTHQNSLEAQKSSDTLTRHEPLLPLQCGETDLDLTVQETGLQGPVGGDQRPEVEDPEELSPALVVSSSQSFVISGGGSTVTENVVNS
Format: cell-based
Procedure, shortened: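 HEK 293 cells stably expressing human parathyroid Ca2+ receptor (clone 4.0-7), loaded with 2 μM fluo-3 AM for 30 min at 37 °C in parathyroid cell buffer (pH 7.45) with 1 mM CaCl2 and 0.5% BSA. After compound addition, intracellular Ca2+ followed by fluorescence at 485 nm excitation/530 nm emission.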

Row | Structure (SMILES) | EC50 [µM]
1 | COc1cccc([C@@H](C)NCc2ccc(OC)c(-c3ccc(C(=O)N(C)C)cc3)c2)c1 [N,N-dimethyl-2′-(methyloxy)-5′-((((1R)-1-(3-(methyloxy)phenyl)ethyl)amino)methyl)-1,1′-biphenyl-4-carboxamide] | ≤ 10
2 | COc1ccc(CN[C@H](C)c2ccccc2)cc1-c1ccc(N(C)C)nc1 [N,N-dimethyl-5-(2-(methyloxy)-5-((((1R)-1-phenylethyl)amino)methyl)phenyl)-2-pyridinamine] | ≤ 10
3 | COc1cccc([C@@H](C)NCc2cccc(-c3cccc(NC(C)=O)c3)c2)c1 [N-(3′-((((1R)-1-(3-(methyloxy)phenyl)ethyl)amino)methyl)-1,1′-biphenyl-3-yl)acetamide] | ≤ 10
4 | CC(=O)Nc1cccc(-c2cccc(CN[C@H](C)c3ccccc3)c2)c1 [N-(3′-((((1R)-1-phenylethyl)amino)methyl)-1,1′-biphenyl-3-yl)acetamide] | ≤ 10
5 | COc1ccc(-c2cc(CN[C@H](C)c3cccc(OC)c3)ccc2NS(C)(=O)=O)cc1 [N-(4′-(methyloxy)-5-((((1R)-1-(3-(methyloxy)phenyl)ethyl)amino)methyl)-1,1′-biphenyl-2-yl)methanesulfonamide] | ≤ 10
6 | COc1ccc(-c2cc(CN[C@H](C)c3ccccc3)ccc2NS(C)(=O)=O)cc1 [N-(4′-(methyloxy)-5-((((1R)-1-phenylethyl)amino)methyl)-1,1′-biphenyl-2-yl)methanesulfonamide] | ≤ 10
7 | COc1cccc([C@@H](C)NCc2cccc(-c3ccc(NC(C)=O)nc3)c2)c1 [N-(5-(3-((((1R)-1-(3-(methyloxy)phenyl)ethyl)amino)methyl)phenyl)-2-pyridinyl)acetamide] | ≤ 10
8 | CCN(CC)CCCOc1ccc(-c2cc(CN[C@H](C)c3cccc(OC)c3)ccc2OC)cn1 [N-((3-(6-((3-(diethylamino)propyl)oxy)-3-pyridinyl)-4-(methyloxy)phenyl)methyl)-N-((1R)-1-(3-(methyloxy)phenyl)ethyl)amine] | ≤ 10
9 | COc1ccc(CNC(C)c2cccc(OC(F)(F)F)c2)cc1-c1ccc(C(F)(F)F)cc1 (centres unmarked) [N-((6-(methyloxy)-4′-(trifluoromethyl)-1,1′-biphenyl-3-yl)methyl)-1-(3-((trifluoromethyl)oxy)phenyl)ethanamine] | ≤ 10
10 | COc1ccc(CNC(C)c2cccc(C)c2)cc1-c1ccc(C(F)(F)F)cc1 (centres unmarked) [N-((6-(methyloxy)-4′-(trifluoromethyl)-1,1′-biphenyl-3-yl)methyl)-1-(3-methylphenyl)ethanamine] | ≤ 10
11 | CCNC(=O)Nc1ccc(CN[C@H](C)c2cccc(OC)c2)cc1-c1ccc(OC)cc1 [N-ethyl-N′-(4′-(methyloxy)-5-((((1R)-1-(3-(methyloxy)phenyl)ethyl)amino)methyl)-1,1′-biphenyl-2-yl)urea] | ≤ 10
12 | CCNC(=O)Nc1ccc(CN[C@H](C)c2ccccc2)cc1-c1ccc(OC)cc1 [N-ethyl-N′-(4′-(methyloxy)-5-((((1R)-1-phenylethyl)amino)methyl)-1,1′-biphenyl-2-yl)urea] | ≤ 10

Further lines, results first:

Row | EC50 [µM] | Structure (SMILES)
13 | ≤ 10 | COc1ccc(CN[C@H](C)c2cccc3ccccc23)cc1-c1ccc(C(=O)N(C)C)cc1 [N,N-dimethyl-2′-(methyloxy)-5′-((((1R)-1-(1-naphthalenyl)ethyl)amino)methyl)-1,1′-biphenyl-4-carboxamide]
14 | ≤ 10 | COc1ccc(CN[C@H](C)c2ccccc2)cc1-c1ccc(C(=O)N(C)C)cc1 [N,N-dimethyl-2′-(methyloxy)-5′-((((1R)-1-phenylethyl)amino)methyl)-1,1′-biphenyl-4-carboxamide]
15 | ≤ 10 | CC(=O)Nc1cccc(-c2cccc(CN[C@H](C)c3cccc4ccccc34)c2)c1 [N-(3′-((((1R)-1-(1-naphthalenyl)ethyl)amino)methyl)-1,1′-biphenyl-3-yl)acetamide]
16 | ≤ 10 | COc1ccc(-c2cc(CN[C@H](C)c3cccc4ccccc34)ccc2NS(C)(=O)=O)cc1 [N-(4′-(methyloxy)-5-((((1R)-1-(1-naphthalenyl)ethyl)amino)methyl)-1,1′-biphenyl-2-yl)methanesulfonamide]
17 | ≤ 10 | CC(=O)Nc1ccc(-c2cccc(CN[C@H](C)c3cccc4ccccc34)c2)cn1 [N-(5-(3-((((1R)-1-(1-naphthalenyl)ethyl)amino)methyl)phenyl)-2-pyridinyl)acetamide]
18 | ≤ 10 | CCN(CC)CCCOc1ccc(-c2cc(CN[C@H](C)c3cccc4ccccc34)ccc2OC)cn1 [N-((3-(6-((3-(diethylamino)propyl)oxy)-3-pyridinyl)-4-(methyloxy)phenyl)methyl)-N-((1R)-1-(1-naphthalenyl)ethyl)amine]
19 | ≤ 10 | CCNC(=O)Nc1ccc(CN[C@H](C)c2cccc3ccccc23)cc1-c1ccc(OC)cc1 [N-ethyl-N′-(4′-(methyloxy)-5-((((1R)-1-(1-naphthalenyl)ethyl)amino)methyl)-1,1′-biphenyl-2-yl)urea]
20 | ≤ 10 | CCOC(=O)c1ccc(-c2cc(CN[C@H](C)c3cccc4ccccc34)ccc2OC)cc1 [ethyl 2′-(methyloxy)-5′-((((1R)-1-(1-naphthalenyl)ethyl)amino)methyl)-1,1′-biphenyl-4-carboxylate]
21 | ≤ 10 | CCOC(=O)c1ccc(-c2cc(CN[C@H](C)c3cccc(OC)c3)ccc2OC)cc1 [ethyl 2′-(methyloxy)-5′-((((1R)-1-(3-(methyloxy)phenyl)ethyl)amino)methyl)-1,1′-biphenyl-4-carboxylate]
22 | ≤ 10 | CCOC(=O)c1ccc(-c2cc(CN[C@H](C)c3ccccc3)ccc2OC)cc1 [ethyl 2′-(methyloxy)-5′-((((1R)-1-phenylethyl)amino)methyl)-1,1′-biphenyl-4-carboxylate]
23 | ≤ 10 | CCOC(=O)N1CCC(c2cc(CN[C@H](C)c3cccc4ccccc34)ccc2OC)CC1 [ethyl 4-(2-(methyloxy)-5-((((1R)-1-(1-naphthalenyl)ethyl)amino)methyl)phenyl)-1-piperidinecarboxylate]
24 | ≤ 10 | CCOC(=O)N1CC=C(c2cc(CN[C@H](C)c3cccc4ccccc34)ccc2OC)CC1 [ethyl 4-(2-(methyloxy)-5-((((1R)-1-(1-naphthalenyl)ethyl)amino)methyl)phenyl)-3,6-dihydro-1(2H)-pyridinecarboxylate]
25 | ≤ 10 | CCOC(=O)N1CCC(c2cc(CN[C@H](C)c3cccc(OC)c3)ccc2OC)CC1 [ethyl 4-(2-(methyloxy)-5-((((1R)-1-(3-(methyloxy)phenyl)ethyl)amino)methyl)phenyl)-1-piperidinecarboxylate]
26 | ≤ 10 | CCOC(=O)N1CCC(c2cc(CN[C@H](C)c3ccccc3)ccc2OC)CC1 [ethyl 4-(2-(methyloxy)-5-((((1R)-1-phenylethyl)amino)methyl)phenyl)-1-piperidinecarboxylate]
